Reference: patent publication US20220009920A1 (GB005, Inc., priority 2020, published 2022)

Tests used:
BTK = target: T1, BTK (Homo sapiens, UniProt Q06187); experiment: Assay to determine activity against BTK; type: biochemical; details: 1 mM ATP, 2 nM BTK, 90 minutes at room temperature
T1 construct: purchased Cama
Description: Solutions of compounds (test or control) in DMSO were prepared at the desired concentrations, and serially diluted to 11 concentrations by 3-fold dilution in 384pp-plate using TECAN EVO200. 20 nL of stock were transferred to 384 plate using Echo550. DMSO was used as vehicle control.
(BTK was obtained from Cama; FLPeptide2 was obtained from PerkinElmer and Ibrutinib was obtained from Selleck.) 5 μL of ATP solution were added to each well, followed by addition of 15 μL of BTK solution to initiate the reaction. (Note the final volume of each well was 20 μL containing MgCl2 (10 mM), Brij-35 (0.01%), DTT (2 mM), BSA (0.05%), EGTA (1 mM), HEPE (pH7.5) (50 mM), FLPeptide (1.5 uM), ATP (1 mM) and BTK (2 nM).
The plates were incubated at room temperature for 90 minutes and then stopping buffer added (75 μL, containing 0.5 M EDTA) to terminate the reaction. Samples from each well were analyzed using EZ reader. The % remaining activity was calculated using read conversion ratio (CR) according to the equation: […]
XLFit (equation 201) was used to calculate IC50's by floating both bottom and top.

BTK in RAMOS B cells = experiment: Assay to determine BTK activity in RAMOS B cells (anti-IgM, FLIPR Calcium 6); type: cell-based; details: anti-IgM EC80, calcium readout
Description: On the day before assay, Ramos B cells were plated in plating medium (RPMI1640 medium containing 1% FBS and 1× pencillin-streptomycin). On the day of the assay, 2× dye solution was prepared following the manual of the FLIRP Calcium 6 Assay Kit: Dilute the dye with assay buffer (20 mM HEPES in IX HBSS, pH7.4); Add probenecid to the final concentration of 5 mM; vortex vigorously for 1-2 minutes. Cells were collected by centrifuging, and the pellet was re-suspended in plating medium. After counting, cells were re-suspended at a density of 3×10^6/ml in plating medium. Equal volume of 2× dye solution was added to the cell suspension. Cells were then plated at 20 μl/well into a 384-well poly-D-lysine coated plate. Plate was centrifuged at 1000 rpm for 3 minutes and then incubated at 37° C. for 2 hours followed by an additional 15-minute incubation at 25° C. Compounds were prepared at 3× concentration in dilution buffer (20 mM HEPES and 0.1% BSA in 1×HBSS, pH 7.4). Serially diluted compound was transferred from source plate to a 384-well compound plate by using an Echo 550 (Labcyte). 20 μl/well compound dilution buffer was added to the compound plate and mixed on plate shaker for 2 mins. 4× EC80 of Anti-IgM (Jackson ImmunoResearch) was prepared in dilution buffer and 20 μl/well was added to a new 384-well compound plate. After 60 mins of incubation at 25° C. in the dark; cell plate, compound plate containing 4×EC80 of anti-IgM and FLIPR tips were placed into FLIPR (Molecular Devices). 10 ul/well of 4×EC80 anti-IgM was transferred to the cell plate by FLIPR. Plates were read for 160 sec with 1 sec interval.

T1 sequence (Q06187 whole entry): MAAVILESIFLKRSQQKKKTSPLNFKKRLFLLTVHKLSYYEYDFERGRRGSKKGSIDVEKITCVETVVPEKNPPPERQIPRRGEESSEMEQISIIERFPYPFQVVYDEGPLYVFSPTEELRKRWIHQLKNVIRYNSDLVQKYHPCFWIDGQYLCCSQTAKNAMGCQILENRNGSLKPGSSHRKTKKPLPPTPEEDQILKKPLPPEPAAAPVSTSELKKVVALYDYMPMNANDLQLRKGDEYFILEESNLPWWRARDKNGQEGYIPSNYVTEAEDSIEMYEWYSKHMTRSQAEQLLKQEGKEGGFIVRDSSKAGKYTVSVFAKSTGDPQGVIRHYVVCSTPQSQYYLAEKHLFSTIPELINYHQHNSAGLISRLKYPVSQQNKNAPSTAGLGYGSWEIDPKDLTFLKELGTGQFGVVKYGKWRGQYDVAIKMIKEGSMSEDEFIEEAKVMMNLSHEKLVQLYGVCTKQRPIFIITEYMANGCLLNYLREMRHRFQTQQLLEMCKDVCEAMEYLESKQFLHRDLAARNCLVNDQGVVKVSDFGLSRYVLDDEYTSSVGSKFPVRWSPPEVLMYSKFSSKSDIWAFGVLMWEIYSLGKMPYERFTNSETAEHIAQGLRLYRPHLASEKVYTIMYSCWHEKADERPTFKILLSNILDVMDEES

Structure (SMILES): C=CC(=O)N1CCc2c(cccc2-c2c(F)cc(C(N)=O)c3[nH]c4c(c23)CC2(CCCO2)CC4)C1 (stereo not drawn) [Compound 7-15, 5-(2-acryloyl-1,2,3,4-tetrahydroisoquinolin-5-yl)-6-fluoro-1,2,4,4′,5′,9-hexahydro-3′H-spiro[carbazole-3,2′-furan]-8-carboxamide]
- IC50 (BTK): 10 to 100 nM
- IC50 (BTK in RAMOS B cells): ≥ 100 nM

Structure (SMILES): C=CC(=O)N1CCc2c(cccc2-c2c(F)cc(C(N)=O)c3[nH]c4c(c23)C[S+]([O-])CC4)C1 (single isomer, unassigned) [Compound 9-2, 9-(2-acryloyl-1,2,3,4-tetrahydroisoquinolin-5-yl)-8-fluoro-1,3,4,5-tetrahydrothiopyrano[4,3-b]indole-6-carboxamide 2-oxide]
- IC50 (BTK): 10 to 100 nM
- IC50 (BTK in RAMOS B cells): ≥ 100 nM

Structure (SMILES): C=CC(=O)N1CCc2c(cccc2-c2c(F)cc(C(N)=O)c3[nH]c4c(c23)CC2(CCOC2)CC4)C1 (stereo not drawn) [Compound 7-18, 5-(2-acryloyl-1,2,3,4-tetrahydroisoquinolin-5-yl)-6-fluoro-1,2,4,4′,5′,9-hexahydro-2′H-spiro[carbazole-3,3′-furan]-8-carboxamide]
- IC50 (BTK): 10 to 100 nM
- IC50 (BTK in RAMOS B cells): ≥ 100 nM

Structure (SMILES): CC#CC(=O)N[C@H]1C[C@@H](F)CN(c2c(F)cc(C(N)=O)c3[nH]c4c(c23)CCC4)C1 [Compound 10-9, 8-((3S,5R)-3-(but-2-ynamido)-5-fluoro-piperidin-1-yl)-7-fluoro-1,2,3,4-tetrahydrocyclopenta[b]indole-5-carboxamide]
- IC50 (BTK): 10 to 100 nM
- IC50 (BTK in RAMOS B cells; Homo sapiens, Ramos): 10 to 100 nM

Structure (SMILES): CC#CC(=O)N[C@H]1CCCN(c2c(F)cc(C(N)=O)c3[nH]c4c(c23)CCCCC4)C1 [Compound 4-1, (S)-1-(3-(but-2-ynamido)piperidin-1-yl)-2-fluoro-5,6,7,8,9,10-hexahydrocyclohepta[b]indole-4-carboxamide]
- IC50 (BTK): 10 to 100 nM
- IC50 (BTK in RAMOS B cells; Homo sapiens, Ramos): 10 to 100 nM

Structure (SMILES): CC#CC(=O)N[C@H]1C[C@@H](O)CN(c2c(F)cc(C(N)=O)c3[nH]c4c(c23)CCCCC4)C1 [Compound 4-4, 1-((3S,5R)-3-(but-2-ynamido)-5-hydroxypiperidin-1-yl)-2-fluoro-5,6,7,8,9,10-hexahydrocyclohepta[b]indole-4-carboxamide]
- IC50 (BTK): 10 to 100 nM
- IC50 (BTK in RAMOS B cells; Homo sapiens, Ramos): ≥ 100 nM

Structure (SMILES): CC#CC(=O)N[C@H]1CCCC(c2c(F)cc(C(N)=O)c3[nH]c4c(c23)CCC4)C1 (single isomer, unassigned) [Compound 10-5]
- IC50 (BTK): < 10 nM
- IC50 (BTK in RAMOS B cells): < 10 nM

Structure (SMILES): C=CC(=O)N1CCC=C(c2ncc(C(N)=O)c3[nH]c4c(c23)CCCC4)C1 [Compound 3-2, 1-(1-acryloyl-1,2,5,6-tetrahydropyridin-3-yl)-6,7,8,9-tetrahydro-5H-pyrido[4,3-b]indole-4-carboxamide]
- IC50 (BTK): < 10 nM
- IC50 (BTK in RAMOS B cells; Homo sapiens, Ramos): < 10 nM

Structure (SMILES): CC#CC(=O)N[C@H]1CCCN(c2c(F)cc(C(N)=O)c3[nH]c4c(c23)CCN(C)CC4)C1 [Compound 9-5, (S)-10-(3-(but-2-ynamido)piperidin-1-yl)-9-fluoro-3-methyl-1,2,3,4,5,6-hexahydroazepino[4,5-b]indole-7-carboxamide]
- IC50 (BTK): < 10 nM
- IC50 (BTK in RAMOS B cells; Homo sapiens, Ramos): 10 to 100 nM

Structure (SMILES): C=CC(=O)N1CCc2c(cccc2-c2c(F)cc(C(N)=O)c3[nH]c4c(c23)CCCCC4)C1 (single isomer, unassigned) [Compound 5-1, 2-fluoro-1-[2-(prop-2-enoyl)-3,4-dihydro-1H-isoquinolin-5-yl]-5H,6H,7H,8H,9H,10H-cyclohepta[b]indole-4-carboxamide]
- IC50 (BTK): 10 to 100 nM
- IC50 (BTK in RAMOS B cells): 10 to 100 nM

Structure (SMILES): CC#CC(=O)N[C@@H]1C=C(c2c(F)cc(C(N)=O)c3[nH]c4c(c23)CCCCC4)CCC1 [Compound 5-9, 1-[(3S)-3-(but-2-ynoylamino)cyclohexen-1-yl]-2-fluoro-5,6,7,8,9,10-hexahydrocyclohepta[b]indole-4-carboxamide]
- IC50 (BTK): 10 to 100 nM
- IC50 (BTK in RAMOS B cells; Homo sapiens, Ramos): 10 to 100 nM

Structure (SMILES): C=CC(=O)N1CCc2c(cccc2-c2cnc(C(N)=O)c3[nH]c4c(c23)CC(F)(F)CC4)C1 [Compound 7-29, 4-(2-acryloyl-1,2,3,4-tetrahydroisoquinolin-5-yl)-6,6-difluoro-6,7,8,9-tetrahydro-5H-pyrido[3,4-b]indole-1-carboxamide]
- IC50 (BTK): 10 to 100 nM
- IC50 (BTK in RAMOS B cells; Homo sapiens, Ramos): 10 to 100 nM

Structure (SMILES): C=CC(=O)N1CCc2c(cccc2-c2c(C)nc(C(N)=O)c3[nH]c4c(c23)CCCC4)C1 (single isomer, unassigned) [Compound 2-6, 4-(2-acryloyl-1,2,3,4-tetrahydroisoquinolin-5-yl)-3-methyl-6,7,8,9-tetrahydro-5H-pyrido[3,4-b]indole-1-carboxamide]
- IC50 (BTK): < 10 nM
- IC50 (BTK in RAMOS B cells): 10 to 100 nM

Structure (SMILES): CC#CC(=O)N1CCC=C(c2cnc(C(N)=O)c3[nH]c4c(c23)CCCC4)C1 [Compound 2-8, 4-(1-(but-2-ynoyl)-1,2,5,6-tetrahydropyridin-3-yl)-6,7,8,9-tetrahydro-5H-pyrido[3,4-b]indole-1-carboxamide]
- IC50 (BTK): 10 to 100 nM
- IC50 (BTK in RAMOS B cells; Homo sapiens, Ramos): ≥ 100 nM

Structure (SMILES): C=CC(=O)N1CCC=C(c2ccc(C(N)=O)c3[nH]c4c(c23)CC2(CC4)CC2)C1 [Compound 7-1, 4-(1-prop-2-enoyl-3,6-dihydro-2H-pyridin-5-yl)spiro[5,7,8,9-tetrahydro-carbazole-6,1′-cyclopropane]-1-carboxamide]
- IC50 (BTK): 10 to 100 nM
- IC50 (BTK in RAMOS B cells; Homo sapiens, Ramos): 10 to 100 nM

Structure (SMILES): C=CC(=O)N1CCC=C(c2ccc(C(N)=O)c3[nH]c4c(c23)CC2(CCCO2)CC4)C1 (stereo not drawn) [Compound 7-6, 5-(1-acryloyl-1,2,5,6-tetrahydropyridin-3-yl)-1,2,4,4′,5′,9-hexahydro-3′H-spiro[carbazole-3,2′-furan]-8-carboxamide]
- IC50 (BTK): ≥ 100 nM
- IC50 (BTK in RAMOS B cells; Homo sapiens, Ramos): ≥ 100 nM

Structure (SMILES): C=CC(=O)N1CCC=C(c2ccc(C(N)=O)c3[nH]c4c(c23)CSCC4)C1 [Compound 8-1, 9-(1-acryloyl-1,2,5,6-tetrahydropyridin-3-yl)-1,3,4,5-tetrahydrothiopyrano-[4,3-b]indole-6-carboxamide]
- IC50 (BTK): < 10 nM
- IC50 (BTK in RAMOS B cells; Homo sapiens, Ramos): < 10 nM

Structure (SMILES): C=CC(=O)N1CCc2c(cccc2-c2c(F)cc(C(N)=O)c3[nH]c4c(c23)CC2(CCOC2)CC4)C1 (stereo not drawn) [Compound 7-17, 5-(2-acryloyl-1,2,3,4-tetrahydroisoquinolin-5-yl)-6-fluoro-1,2,4,4′,5′,9-hexahydro-2′H-spiro[carbazole-3,3′-furan]-8-carboxamide]
- IC50 (BTK): 10 to 100 nM
- IC50 (BTK in RAMOS B cells; Homo sapiens, Ramos): ≥ 100 nM

Structure (SMILES): C=CC(=O)N1CCc2c(cccc2-c2c(F)cc(C(N)=O)c3[nH]c4c(c23)C[S+]([O-])CC4)C1 (single isomer, unassigned) [Compound 9-1, 9-(2-acryloyl-1,2,3,4-tetrahydroisoquinolin-5-yl)-8-fluoro-1,3,4,5-tetrahydrothiopyrano[4,3-b]indole-6-carboxamide 2-oxide]
- IC50 (BTK): < 10 nM
- IC50 (BTK in RAMOS B cells; Homo sapiens, Ramos): ≥ 100 nM

Structure (SMILES): C=CC(=O)N1CCc2c(cccc2-c2c(F)cc(C(N)=O)c3[nH]c4c(c23)CCCCC4)C1 (single isomer, unassigned) [Compound 5-2, 2-fluoro-1-[2-(prop-2-enoyl)-3,4-dihydro-1H-isoquinolin-5-yl]-5H,6H,7H,8H,9H,10H-cyclohepta[b]indole-4-carboxamide]
- IC50 (BTK): ≥ 100 nM
- IC50 (BTK in RAMOS B cells): ≥ 100 nM

Structure (SMILES): C=CC(=O)N1CCCC(c2ncc(C(N)=O)c3[nH]c4c(c23)CCCC4)C1 (stereo not drawn) [Compound 3-3, 1-(1-acryloylpiperidin-3-yl)-6,7,8,9-tetrahydro-5H-pyrido[4,3-b]indole-4-carboxamide]
- IC50 (BTK): < 10 nM
- IC50 (BTK in RAMOS B cells; Homo sapiens, Ramos): < 10 nM
